Measured values: patent US20080070990A1, “USE OF RACTOPAMINE ENANTIOMERS” (STIRLING PRODUCTS LIMITED, priority 2006, published 2008)
Where a name gives a salt, the structure may show the parent alone.

Experiments:
[1] = target: adrenergic β1(h) receptor (Homo sapiens, UniProt P08588); test: Affinity (Ki) for adrenergic β-receptors, β1; assay type: binding
[2] = target: adrenergic B3 (h) receptor (Homo sapiens, UniProt P13945); test: Affinity (Ki) for adrenergic β-receptors, β3; assay type: binding
rats [3] = test: Neuropharmacological study in rats (Irwin test); assay type: in vivo; details: for drug-related stress, Irwin test: rats, oral
mice [4] = test: Spontaneous motor activity studies in mice; assay type: in vivo; details: oral
obese animals = test: Weight loss in obese animals; details: in vivo
pigs = details: literature; cited from earlier work
[5] = test system: adrenergic beta-receptors in adipose tissue; details: animals exposed to racemic ractopamine; cited from earlier work
adrenergic beta-receptor = details: cited from earlier work
mice [6] = test: Stress testing in mice, methodology of Aberg (U.S. Pat. No. 6,372,799); assay type: in vivo; details: preliminary results
livestock animals = test: Stress in livestock animals (applicant's findings); details: in vivo
animals = test: Cardiovascular parameters in animals; assay type: in vivo; details: concentrations corresponding to doses suitable for growth promotion
rats [7] = details: cited from earlier work

Chain of adrenergic B3 (h) receptor (P13945 whole entry): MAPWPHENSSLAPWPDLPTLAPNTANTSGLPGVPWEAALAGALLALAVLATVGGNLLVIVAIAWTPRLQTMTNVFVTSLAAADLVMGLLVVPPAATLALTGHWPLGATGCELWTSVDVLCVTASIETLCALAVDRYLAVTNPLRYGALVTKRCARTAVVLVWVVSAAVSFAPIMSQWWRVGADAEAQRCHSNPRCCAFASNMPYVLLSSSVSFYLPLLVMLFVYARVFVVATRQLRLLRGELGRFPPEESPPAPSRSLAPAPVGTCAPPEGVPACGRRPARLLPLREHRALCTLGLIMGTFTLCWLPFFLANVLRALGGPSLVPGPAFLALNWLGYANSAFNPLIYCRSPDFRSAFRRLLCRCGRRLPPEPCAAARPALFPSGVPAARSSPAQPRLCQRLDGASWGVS
Chain of adrenergic β1(h) receptor (P08588 whole entry): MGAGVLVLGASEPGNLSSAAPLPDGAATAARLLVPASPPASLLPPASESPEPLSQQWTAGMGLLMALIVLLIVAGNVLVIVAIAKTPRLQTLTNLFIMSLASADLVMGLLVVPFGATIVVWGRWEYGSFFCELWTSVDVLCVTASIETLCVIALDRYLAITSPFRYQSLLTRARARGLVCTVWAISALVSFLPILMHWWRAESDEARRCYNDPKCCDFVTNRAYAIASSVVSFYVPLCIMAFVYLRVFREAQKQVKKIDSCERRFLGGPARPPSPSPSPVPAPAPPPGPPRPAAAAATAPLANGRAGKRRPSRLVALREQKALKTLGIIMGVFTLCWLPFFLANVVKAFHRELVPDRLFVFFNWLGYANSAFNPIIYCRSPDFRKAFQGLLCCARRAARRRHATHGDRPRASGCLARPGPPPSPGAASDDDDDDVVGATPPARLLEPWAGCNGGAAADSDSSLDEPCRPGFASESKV

CC(CCc1ccc(O)cc1)NCC(O)c1ccc(O)cc1 (racemic) [Ractopamine, 4-hydroxy-a-[[[3-(4-hydroxyphenyl)-1-methylpropyl]amino]methyl]benzenemethanol hydrochloride]
Ki [1]: 0.26 µM
Ki [2]: 14 µM
affinity for beta-3 receptors (in words) [2]: negligible affinity for beta-3 receptors
drug-related stress, Irwin test (rats [3]): demonstrate stress
drug-related stress, spontaneous motor activity (mice [4]): drug-related and CNS-mediated (“psychological”) stress
weight loss in obese animals (obese animals): cause weight loss in obese animals
stress in pigs / livestock animals (pigs): cause stress in livestock animals
reduction of concentration of adrenergic beta-receptors in adipose tissue [5]: 50%

C[C@@H](CCc1ccc(O)cc1)NC[C@@H](O)c1ccc(O)cc1 (single isomer, unassigned) [SS-enantiomer]
adrenergic beta-receptor stimulating activity (adrenergic beta-receptor): completely devoid of adrenergic beta-receptor stimulating activity

C[C@H](CCc1ccc(O)cc1)NC[C@H](O)c1ccc(O)cc1.Cl (racemic) [RR-ractopamine, RR 4-Hydroxy-a [[[3-(4-hydroxyphenyl)-1-methylpropyl]amino]methyl]benzenemethanol hydrochloride]
drug-related stress, Irwin test (rats [3]): do not show signs of drug-related stress
CNS-mediated stress, stress testing in mice (mice [6]): not causing stress
drug-related stress, spontaneous motor activity (mice [4]): no signs of drug-related stress
stress as side effect in livestock animals (livestock animals): does not cause this side effect in livestock animals
effects on cardiovascular parameters (animals): failed to reveal detrimental effects on cardiovascular parameters
potency rank among the four stereoisomers in vivo (rats [7]): most potent

CC(CCc1ccc(O)cc1)NCC(O)c1ccc(O)cc1 (single isomer, unassigned) [RS-enantiomer]
adrenergic beta-receptor stimulating activity (adrenergic beta-receptor): reduced beta-receptor activity when compared with RR-ractopamine

CC(C)(C)NC[C@H](O)c1ccc(O)c(CO)c1 [R-salbutamol]
affinity for beta-3 receptors (in words) [2]: negligible affinity for beta-3 receptors
CNS-effects related to stress in laboratory animals (rats [3]; laboratory animals): not causing CNS-effects related to stress in laboratory animals
stress in pigs / livestock animals (pigs): does not induce stress in pigs

C[C@H](CCc1ccc(O)cc1)NC[C@@H](O)c1ccc(O)cc1 (single isomer, unassigned) [SR-enantiomer]
adrenergic beta-receptor stimulating activity (adrenergic beta-receptor): reduced beta-receptor activity when compared with RR-ractopamine
